Reference: patent publication US20070218080A1, “Peptide antigen of human papillomavirus type 16 and application thereof” (Mackay Memorial Hospital, priority 2006, published 2007)

Experiments:
[1] = molecular target: T1, HLA-A2.1 antigens on T2 cell surface (Homo sapiens, UniProt P04439, D140Y/D185E/D98H/E176V/E277Q/G131W/G231S/I119V/I121R/I166T/I218V/L300P/L318F/N151K/N90K/P208A/P217A/Q86G/Q94H/R138H/R169H/T345S); experiment: T2 cell binding assay; format: cell-based; details: T2 cells, 10 μg/ml synthetic peptide, 20 hours at 26° C., flow cytometry
T1 construct: endogenous in cells; host or cells: T2 cells
From the text: The binding test of the peptide in the invention was subjected to a T2 cell binding assay to measure the binding affinity for HLA-A2.1 antigens on T2 cell surface. T2 cells lack genes coding for transporter proteins for antigenic peptides (TAP1/TAP2) and therefore is not able to translocate peptide antigens processed by cells into the endoplasmic reticulum (ER). […] Therefore, the synthetic peptide antigens were used directly, not through cell processing, for the binding test with HLA-A2.1 antigens on T2 cell surface.
T2 cells that had been incubated overnight at 26° C. in RPMI 1640 containing 5% fetal bovine serum (FBS) were mixed with 10 μg/ml of pre-prepared synthetic peptide for 20 hours at 26° C. in RPMI containing 5% FCS and 5 μg/ml human β 2-microglobulin (β 2 m). The cells were then washed twice, incubated at 37° C. for 2 hours. […] Then the cells were incubated with fluorescein isothiocyanate (FITC) labeled anti-human HLA-A2.1 antibodies (BD Biosciences Pharmingen) to stain HLA-A2.1. The stains were fixed with 1% paraformaldehyde, and analyzed by flow cytometry. Because the binding of synthetic peptides and HLA-A2.1 antigens would be presented on the surface of lymphocytes, which could be recognized and bound by anti-human HLA-A2.1 antibodies. Therefore the fluorescein indicated the binding of synthetic peptides.

[2] = test system: CD8+IFN-γ+ double-positive cells; experiment: In vivo induction of CD8 T cells proliferation; set-up: species or system HLA-A2.1 transgenic C57BL/6 mice
Protocol: 4-6 week-old HLA-A2.1 transgenic C57BL/6 mice were immunized with 100 μl containing 100 μg of SEQ ID NO: 1 peptide in adjuvant at 0.2 μM of CpG phosphorethioate oligodeoxynucleotide 1826 (CpG ODN 1826) via intramuscular injection three times at one week intervals. Five days after the third immunization, the splenocytes of mice were recovered and the numbers of CD8^+IFN-γ^+ double-positive cells were measured using flow cytometry analyses.

[3] = test system: β-lymphocyte (HMy2.CIR, ATCC No.: CRL-1993) target cells; experiment: Cytotoxicity assay (CTL activity); format: cell-based; details: splenocytes of immunized mice as effector cells
Protocol: The β-lymphocyte (HMy2.CIR, ATCC No.: CRL-1993) target cells were labeled with PKH-26 and carboxyfluorescein diacetate succinimidyl ester (CFSE). 4-6 week-old HLA-A2.1 transgenic C57BL/6 mice were immunized as described in Example 2 with 100 μl of the same dosage of SEQ ID NO: 1 peptide in adjuvant of CpG oligodeoxynucleotide via intramuscular injection three times at one week intervals. Five days after the third immunization, the splenocytes of mice were recovered as effector cells and incubated with the target cells […].
Target cells labeled with two dyes were cultivated in the absence of effector cells as the control group. When membrane damage occurs, the dye is almost instantaneously lost and the cells are no longer able to take up the charged dye.

Substance | fluorescence intensity (FITC anti-human HLA-A2.1 staining) [1] | number of CD8+IFN-γ+ double-positive cells ([2]; splenocytes five days after third immunization, 100 μg peptide with CpG ODN 1826, intramuscular, three times at one week intervals) | increase of CD8+IFN-γ+ double-positive cells in comparison to the irrelevant stimulator ([2]; splenocytes of immunized mice vs control group) | cytolytic activity ([3]; ET ratio 10) | cytolytic activity ([3]; ET ratio 150)
SEQ ID NO: 1: synthetic 9-amino-acid peptide, 63th to 71th amino acid sequence of HPV-16 E5 protein (YIIFVYIPL; Human papillomavirus type 16) | around 22% | 0.32% | about 4 fold | 18% | 33%
positive control: HLA-A2.1 binding peptide obtained from tyrosinase peptide 369-377, positive control [reference compound] | around 35% | – | – | – | –
